{
  "source": "ChEMBL document CHEMBL3272085",
  "about": "“Quantitative structure-activity relationships. 2. A mixed approach, based on Hansch and Free-Wilson Analysis” (1976)",
  "data": [
    {"test_system": "Staphylococcus aureus", "experiment": "Antimicrobial activity against Staphylococcus aureus", "type": "functional", "values": [
      {"compound": "CCCCCCCCCCCCCCCCCC[N+](C)(C)Cc1ccccc1", "log(1/C)": 3.34},
      {"compound": "CCCCCCCCCC[N+](C)(C)Cc1ccccc1", "log(1/C)": 2.79},
      {"compound": "CCCCCCCCCCCC[N+](C)(C)Cc1ccc(Cl)cc1", "log(1/C)": 4.04},
      {"compound": "CCCCCCCC[N+](C)(C)Cc1ccccc1Cl", "log(1/C)": 2.02},
      {"compound": "CCCCCCCCCC[N+](C)(C)Cc1ccccc1Cl", "log(1/C)": 3.41},
      {"compound": "CCCCCCCCCCCC[N+](C)(C)Cc1ccccc1Cl", "log(1/C)": 4.14},
      {"compound": "CCCCCCCCCCCCCC[N+](C)(C)Cc1ccccc1Cl", "log(1/C)": 4.14},
      {"compound": "CCCCCCCCCCCCCCCC[N+](C)(C)Cc1ccccc1Cl", "log(1/C)": 3.74},
      {"compound": "CCCCCCCCCCCCCCCCCC[N+](C)(C)Cc1ccccc1Cl", "log(1/C)": 3.43},
      {"compound": "CCCCCCCC[N+](C)(C)Cc1ccc(Cl)cc1", "log(1/C)": 2.6},
      {"compound": "CCCCCCCCCC[N+](C)(C)Cc1ccc(Cl)cc1", "log(1/C)": 3.6},
      {"compound": "CCCCCCCCCCCCCC[N+](C)(C)Cc1ccc(Cl)cc1", "log(1/C)": 4.34},
      {"compound": "CCCCCCCCCCCCCCCC[N+](C)(C)Cc1ccc(Cl)cc1", "log(1/C)": 3.85},
      {"compound": "CCCCCCCCCCCCCCCCCC[N+](C)(C)Cc1ccc(Cl)cc1", "log(1/C)": 3.17},
      {"compound": "CCCCCCCC[N+](C)(C)Cc1ccc([N+](=O)[O-])cc1", "log(1/C)": 2.11},
      {"compound": "CCCCCCCCCC[N+](C)(C)Cc1ccc([N+](=O)[O-])cc1", "log(1/C)": 3.11},
      {"compound": "CCCCCCCCCCCC[N+](C)(C)Cc1ccc([N+](=O)[O-])cc1", "log(1/C)": 4.2},
      {"compound": "CCCCCCCCCCCCCC[N+](C)(C)Cc1ccc([N+](=O)[O-])cc1", "log(1/C)": 4.23},
      {"compound": "CCCCCCCCCCCCCCCC[N+](C)(C)Cc1ccc([N+](=O)[O-])cc1", "log(1/C)": 4},
      {"compound": "CCCCCCCCCCCCCCCCCC[N+](C)(C)Cc1ccc([N+](=O)[O-])cc1", "log(1/C)": 3.46},
      {"compound": "CCCCCCCC[N+](C)(C)Cc1ccc(Cl)cc1Cl", "log(1/C)": 2.63},
      {"compound": "CCCCCCCCCC[N+](C)(C)Cc1ccc(Cl)cc1Cl", "log(1/C)": 3.65},
      {"compound": "CCCCCCCCCCCC[N+](C)(C)Cc1ccc(Cl)cc1Cl", "log(1/C)": 4.25},
      {"compound": "CCCCCCCCCCCCCC[N+](C)(C)Cc1ccc(Cl)cc1Cl", "log(1/C)": 4.28},
      {"compound": "CCCCCCCCCCCCCCCC[N+](C)(C)Cc1ccc(Cl)cc1Cl", "log(1/C)": 3.41},
      {"compound": "CCCCCCCCCCCCCCCCCC[N+](C)(C)Cc1ccc(Cl)cc1Cl", "log(1/C)": 3.3},
      {"compound": "CCCCCCCC[N+](C)(C)Cc1ccc(Cl)c(Cl)c1", "log(1/C)": 2.92},
      {"compound": "CCCCCCCCCC[N+](C)(C)Cc1ccc(Cl)c(Cl)c1", "log(1/C)": 3.79},
      {"compound": "CCCCCCCCCCCC[N+](C)(C)Cc1ccc(Cl)c(Cl)c1", "log(1/C)": 4.36},
      {"compound": "CCCCCCCCCCCCCC[N+](C)(C)Cc1ccc(Cl)c(Cl)c1", "log(1/C)": 4.04},
      {"compound": "CCCCCCCCCCCCCCCC[N+](C)(C)Cc1ccc(Cl)c(Cl)c1", "log(1/C)": 3.39},
      {"compound": "CCCCCCCCCCCCCCCCCC[N+](C)(C)Cc1ccc(Cl)c(Cl)c1", "log(1/C)": 3.11},
      {"compound": "CCCCCCCCCCCC[N+](C)(C)Cc1ccc(OC)c(OC)c1", "log(1/C)": 3.71},
      {"compound": "CCCCCCCCCCCCCC[N+](C)(C)Cc1ccc(OC)c(OC)c1", "log(1/C)": 4.11},
      {"compound": "CCCCCCCCCCCCCCCC[N+](C)(C)Cc1ccc(OC)c(OC)c1", "log(1/C)": 3.41},
      {"compound": "CCCCCCCC[N+](C)(C)Cc1ccc2c(c1)OCO2", "log(1/C)": 2.04},
      {"compound": "CCCCCCCCCC[N+](C)(C)Cc1ccc2c(c1)OCO2", "log(1/C)": 3.08},
      {"compound": "CCCCCCCCCCCC[N+](C)(C)Cc1ccc2c(c1)OCO2", "log(1/C)": 4},
      {"compound": "CCCCCCCCCCCCCC[N+](C)(C)Cc1ccc2c(c1)OCO2", "log(1/C)": 4.23},
      {"compound": "CCCCCCCCCCCCCCCC[N+](C)(C)Cc1ccc2c(c1)OCO2", "log(1/C)": 4.2},
      {"compound": "CCCCCCCCCCCCCCCCCC[N+](C)(C)Cc1ccc2c(c1)OCO2", "log(1/C)": 3.23}
    ]},
    {"species_on_record": "Rattus norvegicus", "experiment": "Thyroxine-like activity in rat by antigoiter assay relative to control", "type": "functional", "units": {"Activity": "%"}, "values": [
      {"compound": "Cc1cc(C[C@H](N)C(=O)O)cc(C)c1Oc1ccc(O)c(C(C)C)c1", "Activity": 18, "log(activity)": 1.26},
      {"compound": "CC(C)c1cc(Oc2c(Br)cc(C[C@H](N)C(=O)O)cc2Br)ccc1O", "Activity": 450, "log(activity)": 2.65},
      {"compound": "Cc1cc(C[C@H](N)C(=O)O)cc(I)c1Oc1ccc(O)c(I)c1", "Activity": 40, "log(activity)": 1.6},
      {"compound": "N[C@@H](Cc1cc(I)c(Oc2ccc(O)cc2)c(I)c1)C(=O)O", "Activity": 10, "log(activity)": 1},
      {"compound": "N[C@@H](Cc1cc(I)c(Oc2ccc(O)c(O)c2)c(I)c1)C(=O)O", "Activity": 1.5, "log(activity)": 0.18},
      {"compound": "N[C@@H](Cc1cc(I)c(Oc2ccc(O)c(F)c2)c(I)c1)C(=O)O", "Activity": 8, "log(activity)": 0.9},
      {"compound": "N[C@@H](Cc1cc(I)c(Oc2ccc(O)c(Br)c2)c(I)c1)C(=O)O", "Activity": 138, "log(activity)": 2.14},
      {"compound": "Cc1cc(Oc2c(I)cc(C[C@H](N)C(=O)O)cc2I)ccc1O", "Activity": 126, "log(activity)": 2.1},
      {"compound": "CCc1cc(Oc2c(I)cc(C[C@H](N)C(=O)O)cc2I)ccc1O", "Activity": 506, "log(activity)": 2.7},
      {"compound": "CC(C)c1cc(Oc2c(I)cc(C[C@H](N)C(=O)O)cc2I)ccc1O", "Activity": 868, "log(activity)": 2.94},
      {"compound": "CC(C)(C)c1cc(Oc2c(I)cc(C[C@H](N)C(=O)O)cc2I)ccc1O", "Activity": 120, "log(activity)": 2.08},
      {"compound": "CC(C)Cc1cc(Oc2c(I)cc(C[C@H](N)C(=O)O)cc2I)ccc1O", "Activity": 60, "log(activity)": 1.78},
      {"compound": "N[C@@H](Cc1cc(I)c(Oc2ccc(O)c(-c3ccccc3)c2)c(I)c1)C(=O)O", "Activity": 32, "log(activity)": 1.51},
      {"compound": "N[C@@H](Cc1cc(I)c(Oc2cc(F)c(O)c(F)c2)c(I)c1)C(=O)O", "Activity": 1.8, "log(activity)": 0.26},
      {"compound": "N[C@@H](Cc1cc(I)c(Oc2cc(Cl)c(O)c(Cl)c2)c(I)c1)C(=O)O", "Activity": 0.9, "log(activity)": -0.05},
      {"compound": "N[C@@H](Cc1cc(I)c(Oc2cc(Br)c(O)c(Br)c2)c(I)c1)C(=O)O", "Activity": 10, "log(activity)": 1},
      {"compound": "N[C@@H](Cc1cc(I)c(Oc2cc(F)c(O)c(I)c2)c(I)c1)C(=O)O", "Activity": 28, "log(activity)": 1.45},
      {"compound": "N[C@@H](Cc1cc(Br)c(Oc2ccc(O)c(Br)c2)c(Br)c1)C(=O)O", "Activity": 44, "log(activity)": 1.64},
      {"compound": "N[C@@H](Cc1cc(Br)c(Oc2ccc(O)c(I)c2)c(Br)c1)C(=O)O", "Activity": 130, "log(activity)": 2.11},
      {"compound": "N[C@@H](Cc1cc(Br)c(Oc2cc(Br)c(O)c(Br)c2)c(Br)c1)C(=O)O", "Activity": 0.51, "log(activity)": -0.29},
      {"compound": "N[C@@H](Cc1cc(Br)c(Oc2cc(I)c(O)c(I)c2)c(Br)c1)C(=O)O", "Activity": 12.5, "log(activity)": 1.1},
      {"compound": "Cc1cc(C[C@H](N)C(=O)O)cc(C)c1Oc1ccc(O)c(I)c1", "Activity": 5, "log(activity)": 0.7},
      {"compound": "Cc1cc(Oc2c(C)cc(C[C@H](N)C(=O)O)cc2C)ccc1O", "Activity": 3, "log(activity)": 0.48},
      {"compound": "Cc1cc(Oc2c(C)cc(C[C@H](N)C(=O)O)cc2C)cc(C)c1O", "Activity": 2, "log(activity)": 0.3},
      {"compound": "N[C@@H](Cc1cc(Cl)c(Oc2cc(I)c(O)c(I)c2)c(Cl)c1)C(=O)O", "Activity": 0.1, "log(activity)": -1},
      {"compound": "N[C@@H](Cc1cc(I)c(Oc2ccc(O)c(Cl)c2)c(I)c1)C(=O)O", "Activity": 27, "log(activity)": 1.43},
      {"compound": "N[C@@H](Cc1cc(I)c(Oc2cc(I)c(O)c(I)c2)c(I)c1)C(=O)O", "note": "[LEVOTHYROXINE]", "Activity": 100, "log(activity)": 2},
      {"compound": "N[C@@H](Cc1cc(I)c(Oc2ccc(O)c(I)c2)c(I)c1)C(=O)O", "note": "[LIOTHYRONINE]", "Activity": 545, "log(activity)": 2.74}
    ]}
  ]
}
